Assay results from patent US11971413B2, “Peptoid, and its preparation method and use” (BEIJING BOE TECHNOLOGY DEVELOPMENT CO., LTD., priority 2019, dated 2024).
Where a SMILES comes first, the peptide text is derived from it. [ ]: non-standard residue; d: D form. ξ: configuration not given here. N(CH2CH2COOH)Gly = O=C(O)CCNCC(=O)O; Gly(N-CH2CH2OH) = O=C(O)CNCCO; Nleu = CC(C)CNCC(=O)O; Nlys = NCCCCNCC(=O)O; ξC = NC(CS)C(=O)O

Columns and labels:
[1] = test system: Huh7 cell line with high expression of an EpCAM protein; assay: Cell-level imaging with fluorescently labeled peptoid molecular probe, laser confocal microscopy, Huh7 cells; type: cell-based; settings: probe incubated at 4° C. for 30 min, confocal 100× oil objective
Protocol: (§1) The specific steps for cell-level imaging using a fluorescently labeled molecular probe with a peptoid were as follows: • (1) Cell culture and passage: The cell models were an Huh7 cell line with high expression of an EpCAM protein and a human embryonic kidney 293T cell line with low expression of EpCAM (Shanghai Biological Technology Co., Ltd. enzyme research); Huh7 and 293T cells were cultured in a constant temperature incubator (5% CO2) at 37° C. with RPMI1640 medium and DMEM/High glucose medium containing 10% fetal bovine serum and 1% penicillin and streptomycin, respectively; • (2) When the degree of cell fusion reached more than 90%, the cells were passaged. […]

[2] = test system: human embryonic kidney 293T cell line with low expression of EpCAM; assay: Cell-level imaging with fluorescently labeled peptoid molecular probe, laser confocal microscopy, 293T control cells; type: cell-based; settings: 293T cells (low EpCAM, control group), probe incubated at 4° C. for 30 min, confocal 100× oil objective
Protocol: as §1

Structure (SMILES): CC(C)CNCC(=O)N(CCCCN)CC(=O)N(CCO)CC(=O)N(CCC(=O)O)CC(=O)N(CCCCN)CC(=O)N(CCCCN)CC(=O)NC(CS)C(N)=O (centres unmarked) [Example 1] (H-[Nleu][Nlys][Gly(N-CH2CH2OH)][N(CH2CH2COOH)Gly][Nlys][Nlys][ξC]-NH2)
- FITC green fluorescence on the cell membrane [1]: Significant green fluorescence
- FITC green fluorescence on the cell membrane [2]: weak green fluorescence or no green fluorescence
